In brackets after ≈: the same amount, converted by molar mass.
Legend:
culex pipiens larvae = settings: in vivo; cited from earlier work
Lipaphis erysimi = settings: in vivo; cited from earlier work
armyworms = format: in vivo; settings: concentration 600 mg/kg
Fusarium graminearumt = assay: microbe, parasite or virus in culture; format: cell-based
Alternaria solani = assay: Fungicidal (bactericidal) activity in vitro, PDA colony diameter; format: cell-based; settings: 50 mg/kg
Rhizoctonia solani = assay: as above; format: cell-based; settings: 50 mg/kg
Rhizoctonia cereali = assay: as above; format: cell-based; settings: 50 mg/kg
[1] = tested on: tobacco mosaic virus (TMV); assay: Anti-TMV in vivo protective effect; parameters: species or system tobacco mosaic virus (host Nicotiana tabacum L.cv.Xanthi NN)
Cercospora arachidicola = assay: Fungicidal (bactericidal) activity in vitro, PDA colony diameter; format: cell-based; settings: 50 mg/kg
Macrophoma kawatsukai = assay: as above; format: cell-based; settings: 50 mg/kg
Sclerotinia scleotiorum = assay: as above; format: cell-based; settings: 50 mg/kg
Botrytis cinerea = assay: as above; format: cell-based; settings: 50 mg/kg
[2] = tested on: Colletotrichum orbiculare; assay: as above; format: cell-based; settings: 50 mg/kg
[3] = tested on: tobacco mosaic virus (TMV); assay: Anti-TMV in vivo inactivation; parameters: species or system tobacco mosaic virus (host Nicotiana tabacum L.cv.Xanthi NN)
HL60 = settings: cited from earlier work
potato late blight = assay: microbe, parasite or virus in culture; format: cell-based
cucumber fusarium wilt = assay: Fungicidal (bactericidal) activity in vitro, PDA colony diameter; format: cell-based; settings: 50 mg/kg
[4] = tested on: tobacco mosaic virus (TMV); assay: Anti-TMV in vivo therapeutic effect; parameters: species or system tobacco mosaic virus (host Nicotiana tabacum L.cv.Xanthi NN)
Phytophthora capsici = assay: Fungicidal (bactericidal) activity in vitro, PDA colony diameter; format: cell-based; settings: 50 mg/kg
[5] = tested on: tobacco mosaic virus (TMV); assay: Anti-TMV in vitro effect (half-leaf soaking); format: cell-based, tobacco mosaic virus (host Nicotiana tabacum L.cv.Xanthi NN)
Bipolaria maydis = assay: organism not typed; format: cell-based
mosquito larvae = assay: whole plant or invertebrate; settings: 24 h
How it was run: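 Compound dissolved in acetone (or other solvent) to a 1000 ppm stock and diluted in water to 5 ppm. Ten Culex pipiens pallens larvae at the start of the fourth instar, laboratory-reared, added per beaker; solvent-only aqueous control.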

cotton bollworms = assay: whole plant or invertebrate
Procedure: Experimental method of cotton bollworms: feed and drug mixing method: measure 3 mL of prepared solution and add it to about 27 g of newly prepared feed, thereby obtaining needed concentration through dilution by 10 times.

corn borers [6] = assay: whole plant or invertebrate; settings: read-out: Corn borer Mortality (%)
Fusarium fujikuroi = assay: Fungicidal (bactericidal) activity in vitro, PDA colony diameter; format: cell-based; settings: 50 mg/kg
[7] = molecular target: monoamine oxidase (MAO-A) (Homo sapiens, UniProt P21397); settings: cited from earlier work
14 kinds of fungi = assay: Bactericidal activity, overall statements on Table 2; format: cell-based; settings: Table 2, 50 mg/kg
Source text: In vitro test method (Alternaria solani is taken for example. Alternatively, other fungi may be used): Inoculate Alternaria solani to PDA culture medium, culture it for 7 days, prepare […] bacteria plates from colony edge by a puncher, inoculate […] and drug-free PDA culture media, culture them for 4 days, measure colony diameter, compare with the control group and calculate the inhibition percentage of the drug.

corn borers [8] = settings: concentration 600 mg/kg

monoamine oxidase (MAO-A), sequence (P21397 whole entry, species assumed): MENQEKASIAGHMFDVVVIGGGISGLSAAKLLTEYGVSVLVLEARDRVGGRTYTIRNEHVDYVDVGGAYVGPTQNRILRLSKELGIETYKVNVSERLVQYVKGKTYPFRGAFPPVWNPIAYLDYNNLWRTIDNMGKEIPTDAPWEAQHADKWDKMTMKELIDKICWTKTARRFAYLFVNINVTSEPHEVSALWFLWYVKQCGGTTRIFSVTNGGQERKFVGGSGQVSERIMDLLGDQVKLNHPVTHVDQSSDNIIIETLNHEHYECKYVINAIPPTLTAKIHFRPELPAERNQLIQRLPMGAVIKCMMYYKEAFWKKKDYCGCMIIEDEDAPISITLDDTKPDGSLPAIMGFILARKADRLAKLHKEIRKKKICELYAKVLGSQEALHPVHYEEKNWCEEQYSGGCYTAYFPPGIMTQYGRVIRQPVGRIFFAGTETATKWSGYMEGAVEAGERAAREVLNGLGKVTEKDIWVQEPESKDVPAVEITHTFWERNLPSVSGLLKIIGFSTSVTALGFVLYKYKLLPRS

## COC(=O)c1cc2c([nH]c3ccccc32)c(-c2ccccc2)n1
Culex pipiens larvae
  LC50 against culex pipiens larvae: 20.82 mg/L (≈ 68.9 µM)
Lipaphis erysimi
  LC50 against Lipaphis erysimi: 53.16 mg/L (≈ 176 µM)

## CC[C@@H]1N[C@H](C(=O)O)Cc2c1[nH]c1ccccc21 [Ib-3, (1S, 3S)-1-ethyl-2,3,4,9-tetrahydropyridino [3,4-b] indol-3-formic acid]
other
  melting point: 277 to 280 °C

## Cc1nc(C=O)cc2c1[nH]c1ccccc12 [Ia-13, 1-methyl-pyridino [3,4-b] indol-3-formaldehyde]
other
  melting point: 194 to 196 °C

## COc1ccc2c(c1)[nH]c1c(C)nccc12 [Harmine]
armyworms
  Armyworm Mortality (%): 20%
Fusarium graminearumt; Fusarium, 96 h, read-out: Bactericidal activity (%) Fusarium graminearumt
  inhibition of growth at 50 mg/kg: 92.9%
Alternaria solani; Alternaria solani, 96 h
  inhibition of growth at 50 mg/kg: 83.3%
Rhizoctonia solani; Rhizoctonia solani, 96 h
  inhibition of growth at 50 mg/kg: 21.4%
Rhizoctonia cereali; Rhizoctonia, 96 h
  inhibition of growth at 50 mg/kg: 71.9%
[1]; Tobacco mosaic virus, treatment dose 100 μg/mL, read-out: Relative inhibition rate (%) In vivo protection
  inhibition at 100 µg/mL: 16.3%
[1]; Tobacco mosaic virus, treatment dose 500 μg/mL, read-out: Relative inhibition rate (%) In vivo protection
  inhibition at 500 µg/mL: 42.4%
Cercospora arachidicola; Mycosphaerella arachidis, 96 h
  inhibition of growth at 50 mg/kg: 57.1%
Macrophoma kawatsukai
  inhibition at 50 mg/kg: 35.3%
Sclerotinia scleotiorum; Sclerotinia, 96 h
  inhibition of growth at 50 mg/kg: 48%
Botrytis cinerea; Botrytis cinerea, 96 h
  inhibition of growth at 50 mg/kg: 59.1%
[2]; Colletotrichum orbiculare, 96 h
  inhibition of growth at 50 mg/kg: 57.1%
[3]; Tobacco mosaic virus, treatment dose 100 μg/mL, read-out: Relative inhibition rate (%) In vivo inactivation
  inhibition at 100 µg/mL: 11.4%
[3]; Tobacco mosaic virus, treatment dose 500 μg/mL, read-out: Relative inhibition rate (%) In vivo inactivation
  inhibition at 500 µg/mL: 40.5%
HL60
  cytotoxicity to leukemia cell line HL60: shows cytotoxicity
Potato late blight; Phytophthora infestans, 96 h, read-out: Bactericidal activity (%) potato late blight
  inhibition of growth at 50 mg/kg: 35%
Cucumber fusarium wilt; Fusarium, 96 h
  inhibition of growth at 50 mg/kg: 28.6%
[4]; Tobacco mosaic virus, treatment dose 100 μg/mL, read-out: Relative inhibition rate (%) In vivo therapy
  inhibition at 100 µg/mL: 15.8%
[4]; Tobacco mosaic virus, treatment dose 500 μg/mL, read-out: Relative inhibition rate (%) In vivo therapy
  inhibition at 500 µg/mL: 38.6%
Phytophthora capsici; Phytophthora capsici, 96 h
  inhibition of growth at 50 mg/kg: 60.6%
[5]; Tobacco mosaic virus, treatment dose 100 μg/mL, read-out: Relative inhibition rate (%) In vitro activity
  inhibition at 100 µg/mL: 20%
[5]; Tobacco mosaic virus, treatment dose 500 μg/mL, read-out: Relative inhibition rate (%) In vitro activity
  inhibition at 500 µg/mL: 44.6%
Bipolaria maydis; read-out: Bactericidal activity (%) Bipolaria maydis
  inhibition at 50 mg/kg: 31.6%
Mosquito larvae; Culex pipiens, read-out: Mosquito larvae Mortality (%)
  mortality at 10 mg/kg: 45%
Cotton bollworms; Helicoverpa armigera, in Gossypium hirsutum, read-out: Cotton bollworm Mortality (%)
  mortality at 600 mg/kg: 15%
Corn borers [6]
  mortality at 600 mg/kg: 15%
Fusarium fujikuroi; Fusarium fujikuroi, 96 h
  inhibition of growth at 50 mg/kg: 57.1%

## COC(=O)C1Cc2c([nH]c3ccccc23)C(c2ccccc2)N1 (stereo not shown)
Culex pipiens larvae
  LC50 against culex pipiens larvae: 23.98 mg/L (≈ 78.3 µM)
Lipaphis erysimi
  LC50 against Lipaphis erysimi: 68.05 mg/L (≈ 222 µM)

## COc1ccc2c3c([nH]c2c1)C(C)=NCC3 [Harmaline]
[7]
  inhibition of monoamine oxidase (MAO-A): reversible inhibitor

## C[C@@H]1N[C@H](C(=O)NN=Cc2ccc(Cl)cc2)Cc2c1[nH]c1ccccc21 [Ic-5, (1S, 3S)—N′-(4-chlorobenzylidene)-1-methyl-2,3,4,9-tetrahydropyridino [3,4-b] indol-3-formylhydrazine]
armyworms
  Armyworm Mortality (%): 25%
Fusarium graminearumt; 50 mg/kg
  Bactericidal activity (%) Fusarium graminearumt: 75.9%
Alternaria solani
  Bactericidal activity (%) Alternaria solani: 55.0%
Rhizoctonia solani
  Bactericidal activity (%) Rhizoctonia solani: 81.6%
Rhizoctonia cereali
  Bactericidal activity (%) Rhizoctonia cereali: 94.1%
[1]; treatment dose 100 μg/mL
  Relative inhibition rate (%) In vivo protection: 34.1%
[1]; treatment dose 500 μg/mL
  Relative inhibition rate (%) In vivo protection: 64.2%
Cercospora arachidicola
  Bactericidal activity (%) Cercospora arachidicola: 76.5%
Macrophoma kawatsukai
  Bactericidal activity (%) Macrophoma kawatsukai: 97.2%
Sclerotinia scleotiorum
  Bactericidal activity (%) Sclerotinia scleotiorum: 88.2%
Botrytis cinerea
  Bactericidal activity (%) Botrytis cinerea: 59.1%
[2]
  Bactericidal activity (%) Colletotrichum orbiculare: 77.8%
[3]; treatment dose 100 μg/mL
  Relative inhibition rate (%) In vivo inactivation: 35.9%
[3]; treatment dose 500 μg/mL
  Relative inhibition rate (%) In vivo inactivation: 70.4%
Potato late blight
  Bactericidal activity (%) potato late blight: 80.0%
Cucumber fusarium wilt
  Bactericidal activity (%) Cucumber fusarium wilt: 61.5%
[4]; treatment dose 100 μg/mL
  Relative inhibition rate (%) In vivo therapy: 29.2%
[4]; treatment dose 500 μg/mL
  Relative inhibition rate (%) In vivo therapy: 71.5%
Phytophthora capsici
  Bactericidal activity (%) Phytophthora capsici: 81.6%
[5]; treatment dose 100 μg/mL
  Relative inhibition rate (%) In vitro activity: 30.8%
[5]; treatment dose 500 μg/mL
  Relative inhibition rate (%) In vitro activity: 67.3%
Bipolaria maydis; 50 mg/kg
  Bactericidal activity (%) Bipolaria maydis: 68.0%
Mosquito larvae; concentration 10 mg/kg
  Mosquito larvae Mortality (%): 50%
Cotton bollworms; concentration 600 mg/kg
  Cotton bollworm Mortality (%): 25%
14 kinds of fungi
  bactericidal activity against fungi (in words): very good bactericidal activity against various kinds of fungi
Fusarium fujikuroi
  Bactericidal activity (%) Fusarium fujikuroi: 64.3%
Corn borers [8]
  Corn borer Mortality (%): 20%

Source: US10208033B2, “β-carboline, dihydro-β-carboline and tetrahydro-β-carboline alkaloid derivatives and preparation methods same and use in aspects of preventing and treating plant viruses, fungicides and insecticides” (NANKAI UNIVERSITY, priority 2013, dated 2019)
